Data from ChEMBL document CHEMBL1155598, “Microcyclamide, a cytotoxic cyclic hexapeptide from the cyanobacterium Microcystis aeruginosa” (J Nat Prod, 2000).
Converted amounts (≈) assume the structure as drawn.

System: P388
Experiment: Cytotoxicity against mouse P388 cells after 3 days by MTT assay
Type: functional, cell-based
Settings: P388, 72 h

CC[C@H](C)[C@@H]1NC(=O)c2nc(oc2C)[C@H](C)NC(=O)c2csc(n2)[C@H](Cc2cncn2C)NC(=O)c2csc1n2 [MICROCYCLAMIDE]
IC50: 1.2 µg/mL (≈ 2.06 µM)
